We go through 13 molecules from patent publication US5891462A, “Composition for transdermal administration of an estrogen” (Permatec N.V., priority 1996, dated 1999).

Where “and” joins values, the source holds several entries; their conditions need not be identical. Identical values can stand only once. Entries after “also recorded” stand apart in the source; their conditions may differ. Like-named read-outs stand apart in the source and are kept apart here.

The conditions of data set [1]: cited from earlier work.
The conditions of data set [2]: cited from earlier work; for Enhancement factor: normalized skin permeation rate with/without enhancer.
For data set [3] the following is noted: transdermal; Balfour 1990; cited from earlier work.
The nature of the next data set: clinical. As to conditions: human, in vivo. Further details: species or system postmenopausal women. The method, then: The duration of the study was 3 days, thus 3 dose application were applied. Blood samples were taken at 0 h (basal value), 2, 6, 12, 24, 30, 36, 48, 54, 60, and 72 hs after the initiation of the study. Estradiol and norethindrone serum levels were determined by time-resolved fluoroimmunoassay and by enzyme immunoassay respectively.

The nature of data set [4]: In vitro permeation through abdominal guinea pig skin (vertical diffusion cell, HPLC). The data set is classed as in vitro ADME. The settings on record: for penetration enhancement at early and late times (in words): early 8 hs, late 16, 24 hs, occlusive. The source says: FIG. 3 an apparatus "Hanson P/N 57-VC" (vertical diffusion cell) is schematically represented 3 wherein:
The term "occlusive condition" used for the experimental tests carried out with the apparatus described in FIG. 3, means that the donor chamber (2) of the diffusion is closed by the top plate (3) i.e. not in communication with the external air. On the contrary the term "non occlusive condition" means that the top plate (3) has a hole allowing the free interaction between the formulation to be tested and the external air permitting the evaporation of the volatile solvents.
Furthermore, in vitro permeation experiments through abdominal guinea pig skin was made using the diffusion chamber that is schematically shown in FIG. 3.
Female guinea pigs, 8 to 16 months of age were shaved on their abdominal skin 72 hs. before sacrifice by cervical dislocation. […] A section of full thickness abdominal skin was surgically excised and mounted between the sections of a vertical diffusion cell having 1.77 sqcm of surface area, the epidermal facing up. A given amount of the pharmaceutical formulations exemplified above were spread over the epidermal layer whilst the dermal layer contact with a solution of sodium lauryl sulfate (SDS), at 34° C.
The experiments were conducted in two different conditions: in occlusive condition with a glass stopper, which avoid the evaporating of the volatile solvents, and in non occlusive condition, whereas the stopper used allow the evaporation of the volatile solvents.

For data set [5] the following is noted: Whitehead 1990; cited from earlier work.
Where [6] appears, read: enhancer: Decylmethyl sulfoxide.

As to `C[C@]12CC[C@@H]3c4ccc(O)cc4CC[C@H]3[C@@H]1CC[C@@H]2O` [Estradiol, 17-β-estradiol], the “therapeutically effective daily dose of estrogen” value in data set [1] (Powers 1985) was 40 to 50 µg/day. Also, the “serum levels of estradiol required for clinical efficacy” value in data set [1] (reviewed by Powers) was 40 to 60 pg/mL. In addition, the Enhancement factor in data set [2] (enhancer: Azone) is 20.17. The Enhancement factor in data set [2] (setting [6]) was 12.59. Further, the Enhancement factor in data set [2] (enhancer: Propyl myristate) is listed as 9.33. Besides, the Enhancement factor in data set [2] (enhancer: Propyl oleate) was 14.62. Besides, in data set [3], the “effects on gonadotrophins, vaginal epithelium, bone resorption and menopausal symptoms” value was “comparable to those of oral and subcutaneous estrogens”; the “undesirable effects of oral estrogen on hepatic metabolism” value is “avoided”. The “Serum Levels of Estradiol (mean)” value in “clinical” was 6,37 pg/ml. In “clinical” (topical or ocular), the concentration at 2 h came out at 0.0328 ng/mL, the concentration at 6 h is 0.0205 ng/mL, the concentration at 12 h amounted to 0.0268 ng/mL and the concentration at 24 h was 0.0276 ng/mL. Further, in “clinical” (topical or ocular), the concentration at 30 h amounted to 0.0393 ng/mL, the concentration at 36 h was 0.0303 ng/mL, the concentration at 48 h worked out at 0.0359 ng/mL and the concentration at 54 h is 0.0652 ng/mL. For the same molecule, in “clinical” (topical or ocular), the concentration at 60 h was found to be 0.0487 ng/mL and the concentration at 72 h was 0.0437 ng/mL.

On to `C[C@]12CCC(=O)C=C1CC[C@@H]1[C@@H]2[C@@H](O)C[C@@]2(C)[C@H]1CC[C@]2(O)C(=O)CO` [Hydrocortisone], for which the Enhancement factor in data set [2] (enhancer: Azone) is 61.3; in data set [2] (setting [6]), 25.23; in data set [2] (enhancer: Propyl myristate) it was 4.57; in data set [2] (enhancer: Propyl oleate), 5.01.

On to `COc1ccc2c(c1)c(CC(=O)O)c(C)n2C(=O)c1ccc(Cl)cc1` [Indomethacin], for which the Enhancement factor is 14.49 in data set [2] (enhancer: Azone), 15.67 in data set [2] (setting [6]), 3.77 in data set [2] (enhancer: Propyl myristate) and 4.67 in data set [2] (enhancer: Propyl oleate).

Turning to `C#C[C@]1(O)CC[C@H]2[C@@H]3CCC4=CC(=O)CC[C@@H]4[C@H]3CC[C@@]21C` [Norethindrone, norethindrone], the “Serum Levels of Norethindrone (mean)” value in “clinical” is 0.093 ng/mL; in the data set “clinical” (topical or ocular, 2 h), 1.407 ng/mL; in the data set “clinical” (topical or ocular, 6 h) it was 1.394 ng/mL; in the data set “clinical” (topical or ocular, 12 h) it was 1.908 ng/mL; in “clinical” (topical or ocular, 24 h) it was 2.695 ng/mL; in the data set “clinical” (topical or ocular, 30 h), 3.461 ng/mL. In addition, the “Serum Levels of Norethindrone (mean)” value in “clinical” (topical or ocular, 36 h) is 3.096 ng/mL; in “clinical” (topical or ocular, 48 h) it was 3.713 ng/mL; in “clinical” (topical or ocular, 54 h), 5.61 ng/mL; in “clinical” (topical or ocular, 60 h), 4.904 ng/mL; in the data set “clinical” (topical or ocular, 72 h) it was 4.899 ng/mL.

Take `CC(=O)[C@H]1CC[C@H]2[C@@H]3CCC4=CC(=O)CC[C@]4(C)[C@H]3CC[C@]12C` [Progesterone]: the Enhancement factor was 5.96 in data set [2] (enhancer: Azone), 11.04 in data set [2] (setting [6]), 4.56 in data set [2] (enhancer: Propyl myristate) and 5.36 in data set [2] (enhancer: Propyl oleate).

As to `CCCCCC(=O)O` [caproic acid], the “enhancement of skin permeation of progesterone by fatty acids” value in data set [2] (progesterone, saturated fatty acid chain length, Chien) is reported as “major enhancement effect”.

Turning to `CCCCCCCCCC(=O)O` [decanoic acid], in data set [2] (estradiol, U.S. Pat. No. 5,145,682), the “enhancement for estradiol by fatty acids” value is given as “better enhancer for estradiol”.

In the case of `CCOCCOCCO` [diethylene glycol monoethyl ether], the “penetration enhancement at early and late times (in words)” value in data set [4] is on record as “excellent penetration enhancer at late times (16, 24 hs); also recorded: good penetration enhancer for late times; also recorded: enhances the permeation rates of the hormones in the later times”.

On to `CCCCCCCCCCCC(=O)O` [lauric acid], for which, in data set [2] (naloxone, Brian and Walters), the “enhancer comparison for naloxone” value was “better enhancer than lauryl alcohol”.

With `CCCCCCCCCCCCO` [lauryl alcohol], the “norethindrone acetate permeation enhancement (in words)” value in data set [4] (comparison of enhancers) is “two folds higher; also recorded: greater; also recorded: highest enhancement factor for norethindrone acetate; also recorded: most adequate enhancer”. Moreover, the “penetration enhancement at early and late times (in words)” value in data set [4] was “good penetration enhancer at early time (8 hs); also recorded: good penetration enhancer for early times; also recorded: higher enhancement factor in the early times”.

Consider `CCCCCCCCCCO` [n-decanol], for which the “norethindrone acetate permeation enhancement (in words)” value in data set [4] (comparison of enhancers) is listed as “greater”.

`C#C[C@]1(OC(C)=O)CC[C@H]2[C@@H]3CCC4=CC(=O)CC[C@@H]4[C@H]3CC[C@@]21C` [norethindrone acetate]: the “transdermal dose required to oppose estrogen hyperstimulation of the endometrium / therapeutically effective daily dose of progestin” value in data set [5] is 200 to 300 µg/day and 200 to 250 µg/day.

In the case of `CCCCCCCC/C=C\CCCCCCCCO` [oleyl alcohol], the “estradiol permeation enhancement (in words)” value in data set [4] (comparison of enhancers) is recorded as “highest enhancement factor for estradiol”.
